The nature of the data set: solvent given as SMILES.

Values joined by “and” are separate entries in the source; they are usually repeats but may differ in a detail not shown here. Identical values can stand only once.

For `C(C#Cc1ccc2ccc3cccc4ccc1c2c34)#Cc1cccc2ccccc12`, the absorption maximum runs as follows: (in C1CCCCC1) 409 nm; (in CC#N) 407 nm; (in CO) 406 nm; (in ClCCl) 412 nm.

Where the note is “in ClCCl”, `[O-][n+]1c(/C=C/c2ccc(/C=C/c3ccccc3)cc2)nc(N2CCOCC2)c2c1CCCC2` registered an absorption maximum of 406 nm.

As to `Cc1ccc(/C=C/c2nc(-c3ccc([N+](=O)[O-])cc3)[nH]c2/C=C/c2ccc(C)cc2)cc1`, the absorption maximum (in ClCCl) is recorded as 445 nm.

`c1ccc2[nH]c(-c3ccc(-c4ccc(-c5ccc(-c6nc7ccccc7[nH]6)cc5)cc4)cc3)nc2c1` returned an absorption maximum (in CN(C)C=O) of 349 nm.

Turning to `C#CCOc1ccc(/C=C/C2=[N+]3C(=C(c4ccc(N(C)CC)cc4)c4c(C)cc(C)n4[B-]3(F)F)C(C)=C2)cc1`, for the setting “in CO”, the absorption maximum turned out to be 569 nm.

Take `CC[N+](CC)=c1ccc2c(-c3ccccc3C(=O)O)c3oc4cc(N)ccc4c3oc-2c1`: the absorption maximum is, setting by setting: (in CCO) 572 nm; (in ClCCl) 581 nm; (in O) 581 nm.

Consider `C(#Cc1cccs1)C(C#Cc1cccs1)=Cc1ccc(C=C(C#Cc2cccs2)C#Cc2cccs2)cc1`, for which the absorption maximum (in ClC(Cl)Cl) is 438 nm.

Turning to `CCCCCCCCCCCCC(CCCCCCCCCC)Cn1c2cc(/C=C/C=C/c3nc4ccccc4s3)c3cccc4c5cccc6c(/C=C/C=C/c7nc8ccccc8s7)cc1c(c65)c2c34` (centres undefined), the absorption maximum is given as 530 nm (in C1CCCCC1), 528 nm (in CC#N), 538 nm (in Cc1ccccc1) and 538 nm (in ClCCl).

With `CCN(CC)c1ccc2cc(-c3csc(NC(C)=O)c3C#N)c(=O)oc2c1`, the absorption maximum is, setting by setting: (in CO) 404 nm; (in CS(C)=O) 394 nm; (in Cc1ccccc1) 402 nm.

`CC(C)(C)c1ccc(Oc2cc3c4c(cc(Oc5ccc(C(C)(C)C)cc5)c5c6c(Oc7ccc(C(C)(C)C)cc7)cc7c8c(cc(Oc9ccc(C(C)(C)C)cc9)c(c2c45)c86)C(=O)N(Cc2ccccc2)C7=O)C(=O)N(Cc2ccccc2)C3=O)cc1`: where the note is “in ClC(Cl)Cl”, the absorption maximum amounted to 581 nm.

On to `CCOC(=O)COc1ccc(C(c2c(C)[nH]c3ccccc23)c2c(C)[nH]c3ccccc23)cc1`, for which the absorption maximum by setting is: (in C1CCCCC1) 291 nm; (in CC#N) 290 nm; (in CO) 290 nm; (in O) 289 nm.

`CC(C)=CCN1C(=O)c2cccc3c2c(cc2nc(C)oc23)C1=O`: the absorption maximum (in CCO) is recorded as 362 nm.

As for `Cc1cc(C)c2nc3c(=O)n(C)c(=O)nc-3n(C)c2c1`, the absorption maximum (in CC#N) came to 446 nm.

Compound `N#Cc1c(-n2c3ccccc3c3cc(Br)ccc32)c(C#N)c(-n2c3ccccc3c3cc(Br)ccc32)c(-n2c3ccccc3c3cc(Br)ccc32)c1-n1c2ccccc2c2cc(Br)ccc21` had an absorption maximum (in Cc1ccccc1) of 381 nm.

Turning to `CCOC(=O)c1nn(-c2ccc(OC)cc2)nc1N1CCCC1`, where the note is “in CC#N”, the absorption maximum is on record as 336 nm.

In turn, `CCC1(CC)c2ccccc2-c2ccc(C#Cc3cc(C#Cc4ccc5c(c4)C(CC)(CC)c4ccccc4-5)c4ccc5c(C#Cc6ccc7c(c6)C(CC)(CC)c6ccccc6-7)cc(C#Cc6ccc7c(c6)C(CC)(CC)c6ccccc6-7)c6ccc3c4c65)cc21` gave an absorption maximum (in Cc1ccccc1) of 488 nm.

As for `CN1C(=CC2=C([O-])C(=Cc3oc(-c4ccc(-c5ccccc5)cc4)c[n+]3C)C2=O)C(C)(C)c2ccccc21`, the absorption maximum (in ClC(Cl)Cl) is listed as 606 nm.

Turning to `N#Cc1c(N2CCCC2)cc(-c2ccccc2)c2c1-c1ccccc1C2`, the absorption maximum (in C1CCOC1) amounted to 353 nm.

On to `C(#Cc1ccccc1)C(C#Cc1ccccc1)=Cc1ccc(-c2ccc(C=C(C#Cc3ccccc3)C#Cc3ccccc3)cc2)cc1`, for which the absorption maximum (in ClC(Cl)Cl) amounted to 394 nm.

For the compound `Nc1cccc2cccc(N)c12`, the absorption maximum (in CC#N) is given as 349 nm, the absorption maximum (in CO) is reported as 334 nm, the absorption maximum (in CS(C)=O) was 354 nm and the absorption maximum (in Cc1ccccc1) is 334 nm.

The compound `O=S1(=O)C2=C(c3ccc(N(c4ccccc4)c4ccccc4)cc31)C1(C3=C(c4ccccc41)S(=O)(=O)c1cc(N(c4ccccc4)c4ccccc4)ccc13)c1ccccc12` came in with an absorption maximum (in C1CCOC1) of 443 nm; an absorption maximum (in CC#N) of 446 nm; an absorption maximum (in CCCCCC) of 434 nm; an absorption maximum (in Cc1ccccc1) of 450 nm; an absorption maximum (in ClCCl) of 451 nm.

For `CCOC(=O)c1cc(C(=O)OCC)c2ccc(O)cc2n1`, for the setting “in CCO”, the absorption maximum was 373 nm.

For the setting “in CCO”, `C#Cc1ccc2cc(/C=C/C(=O)OCC)c(=O)oc2c1` gave an absorption maximum of 360 nm.

In the case of `CCCCCC(=O)c1cccc2sc3c(c12)P(=O)(c1ccccc1)c1ccccc1-3` (centres undefined), under “in ClCCl”, the absorption maximum is 359 nm and 380 nm.

For the compound `C#Cc1ccc2cc3c(C)cc(=O)oc3cc2c1`, where the note is “in CCO”, the absorption maximum came out at 334 nm.

In turn, `CCOC(=O)C1=C(C(=O)OCC)C2(c3ccccc3-c3ccccc32)[C@@H](c2ccccc2)C=C2c3cc(OC)c(OC)cc3CCN21` yielded an absorption maximum (in ClCCl) of 311 nm.

The compound `O=P1(c2ccccc2)C(c2ccc(C3=Cc4ccccc4P3(=O)c3ccccc3)cc2)=Cc2ccccc21` (centres undefined) showed an absorption maximum (in C1CCOC1) of 387 nm.

`c1ccc(-n2c3ccccc3c3cc(-n4ccc5cc(-c6ccc(C7(c8ccccc8)c8ccccc8-c8ccccc87)cc6)ccc54)ccc32)cc1` showed an absorption maximum (in ClCCl) of 308 nm.

For `CC/[NH+]=c1\cc2oc3cc(NCCOC(=O)C(NC(=O)OC(C)(C)C)C(C)C)c4ccccc4c3nc-2cc1C` (centres undefined), the absorption maximum is, setting by setting: (in CCO) 590 nm; (in O) 590 nm.

`C[n+]1ccn(CCCCc2ccc3c(c2)c2ccccc2n3-c2cc(C#N)c(C#N)cc2F)c1` yielded an absorption maximum (in CC#N) of 350.79 nm.

Compound `Cc1ccc(C)c2nc3c(=O)[nH]c(=O)[nH]c3nc12` showed an absorption maximum (in CC#N) of 388 nm.

Where the note is “in CCO”, `CC1=CC(C)(C)N(C)c2cc3c(cc21)C(c1ccc(Br)cc1)=c1cc2c(cc1O3)=[N+](C)C(C)(C)C=C2C` displayed an absorption maximum of 594 nm.

Compound `O=[N+]([O-])c1ccc(-n2c3ccccc3c3c2c2ccccc2n3-c2ccccc2)cc1` had an absorption maximum (in Cc1ccccc1) of 418 nm.

In turn, `CCC1(CC)c2cc(-c3ccc(N(c4ccc(-c5ccc6c(c5)C(CC)(CC)c5cc(N7c8ccccc8C(C)(C)c8ccccc87)ccc5-6)cc4)c4ccc(-c5ccc6c(c5)C(CC)(CC)c5cc(N7c8ccccc8C(C)(C)c8ccccc87)ccc5-6)cc4)cc3)ccc2-c2ccc(N3c4ccccc4C(C)(C)c4ccccc43)cc21` came in with an absorption maximum (in ClC(Cl)Cl) of 366 nm.

On to `CNc1ccc(/C=C/C(=O)OC)cc1`, for which the absorption maximum (in O) came out at 347.28 nm.

As to `O=C(N/N=C/c1ccccc1O)c1ccccc1`, the absorption maximum (in C1CCOC1) turned out to be 334 nm; the absorption maximum (in CC#N) is 333 nm; the absorption maximum (in CC(C)=O) is 415 nm; the absorption maximum (in CCO) was 400 nm; the absorption maximum (in CN(C)C=O) amounted to 397 nm; the absorption maximum (in CS(C)=O) is recorded as 329 nm. Besides, the absorption maximum (in ClCCl) was found to be 330 nm.

Take `Cc1ccc(N2C(c3ccccc3NS(=O)(=O)c3ccc(C)cc3)=NC(c3ccccc3)C2c2ccccc2)cc1` (centres undefined): the absorption maximum (in Cc1ccccc1) was 300 nm.

`CC(=O)Nc1ccc2ccc3cccc4ccc1c2c34`: the absorption maximum runs as follows: (in CC#N) 339 nm; (in CCCCOCCCC) 341 nm; (in CO) 338 nm.

With `Cc1ccc([B-]2(c3ccc(C)cc3)n3nc(C(F)(F)F)cc3-c3c4ccccc4cc[n+]32)cc1`, the absorption maximum by setting is: (in C1CCCCC1) 377 nm; (in Cc1ccccc1) 377 nm; (in ClCCl) 373 nm.

In turn, `CCCCCCc1ccc(-n2c3c4cccc(OC)c4nc(-c4ccc(C)cc4)c3c3c2c2c(-c4ccc(C)cc4)nc4c(OC)cccc4c2n3-c2ccc(CCCCCC)cc2)cc1` returned an absorption maximum (in ClC(Cl)Cl) of 315 nm.

With `CC1(C)CC(/N=C/c2ccc3ccc4cccc5ccc2c3c45)CC(C)(C)N1`, the absorption maximum runs as follows: (in C1CCCCC1) 360 nm; (in CC#N) 358 nm; (in CO) 359 nm; (in ClC(Cl)Cl) 361 nm.

For the setting “in O”, `O=S(=O)([O-])c1cccc2c([O-])cccc12` came in with an absorption maximum of 346 nm.

In the case of `F[B-]1(F)n2c(c3cccc4cccc2c43)=Nc2cccc(Cl)[n+]21`, the absorption maximum is 476 nm (in C1CCOC1); 470 nm (in CC#N); 481 nm (in CCCCCC); 481 nm (in Cc1ccccc1); 447 nm (in ClCCl).

For the setting “in Cc1ccccc1”, `C(#Cc1cc2ccc3cccc4ccc(c1)c2c34)c1ccccc1` yielded an absorption maximum of 390 nm.

Compound `CN(C)c1ccc2c(c1)-c1ccccc1C2=O` gave an absorption maximum (in C1CCCCC1) of 400 nm, an absorption maximum (in CC#N) of 431 nm, an absorption maximum (in CCO) of 437 nm and an absorption maximum (in c1ccccc1) of 420 nm.

In the case of `CC1(C)CC(=O)C2=C(C1)Oc1ccc3cc(O)ccc3c1C2c1ccccn1` (centres undefined), the absorption maximum is listed as 349 nm (in C1CCOC1); 347 nm (in C1COCCO1); 349 nm (in CC#N); 347 nm (in CCCCCCC); 349 nm (in CCO); 349 nm (in CO). For the setting “in O”, this compound displayed an absorption maximum of 347 nm.

`CCCCCCCCc1ccc(-c2c3cc(-c4cc(CCCCCCCC)c(-c5ccc(-c6sc(/C=C7\SC(SCC)=NC7=O)cc6CCCCCCCC)s5)s4)sc3c(-c3ccc(CCCCCCCC)s3)c3cc(-c4cc(CCCCCCCC)c(-c5ccc(-c6sc(/C=C7\SC(SCC)=NC7=O)cc6CCCCCCCC)s5)s4)sc23)s1`: the absorption maximum (in ClC(Cl)Cl) was 500 nm.

As to `C(=C\c1cccc2ccccc12)/c1ccc(-c2nnc(-c3ccc(-c4cc5ccccc5s4)cc3)o2)cc1`, the absorption maximum stood at 349 nm (in CC#N); 350 nm (in CC(C)=O); 354 nm (in CCCCCCCC); 360 nm (in CCCCCCCCCCO); 359 nm (in CCCCCCCCO); 356 nm (in CCCCCO). Besides, the absorption maximum (in CCCO) is recorded as 342 nm, the absorption maximum (in CN(C)C=O) turned out to be 357 nm, the absorption maximum (in CO) is 351 nm and the absorption maximum (in CS(C)=O) came to 360 nm.

The values are drawn from the Deep4Chem optical property database.
